Data published in patent US20080090805A1, “CB-1 MODULATING COMPOUNDS AND THEIR USE” (ACADIA PHARMACEUTICALS INC., priority 2005, published 2008).

Target: native CB1 receptors (Rattus norvegicus, UniProt P20272)
Test: CB1 receptor rat binding assay ([3H]SR141716A, rat brain membranes)
Details: rat brain membranes, [3H]SR141716A; for Ki: read-out: Binding rat pKi (converted)

Sequence of native CB1 receptors (P20272 whole entry): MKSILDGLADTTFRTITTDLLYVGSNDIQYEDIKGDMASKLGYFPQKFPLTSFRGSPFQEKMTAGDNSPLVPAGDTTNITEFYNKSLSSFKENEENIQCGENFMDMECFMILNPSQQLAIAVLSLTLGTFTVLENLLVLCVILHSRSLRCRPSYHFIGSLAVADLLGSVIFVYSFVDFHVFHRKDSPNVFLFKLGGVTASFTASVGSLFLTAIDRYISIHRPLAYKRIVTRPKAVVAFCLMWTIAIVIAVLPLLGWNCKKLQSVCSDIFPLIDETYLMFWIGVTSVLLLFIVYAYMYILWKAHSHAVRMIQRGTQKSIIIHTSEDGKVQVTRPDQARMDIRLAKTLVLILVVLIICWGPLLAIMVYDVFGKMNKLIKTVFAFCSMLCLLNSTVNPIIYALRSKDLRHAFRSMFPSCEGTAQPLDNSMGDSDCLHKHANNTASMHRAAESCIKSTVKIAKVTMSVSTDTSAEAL

SMILES | Ki | Binding rat Inh %
O=C(NCc1cccc(Cl)c1)c1ccc2c(c1)N=C(N1CCCCC1)c1ccccc1[S+]2[O-] (stereo not drawn) [drawing 1315] | 25.1 nM | 
Cc1ccsc1C1=Nc2cc(C(=O)NCC(C)C)ccc2Sc2ccccc21 [drawing 1516] | 10 nM | 98%
O=C(NCCC(F)(F)F)c1ccc2c(c1)N=C(c1ccc(Cl)s1)c1ccccc1S2 [drawing 1273] | 2 nM | 85%
O=C(NCc1cccs1)c1ccc2c(c1)N=C(c1cccc(Cl)c1)c1ccccc1S2 [drawing 1272] | 2 nM | 109%
CCCC1=Nc2cc(C(=O)NC(C)C34C[C@H]5C[C@@H](C3)C[C@@H](C4)C5)ccc2Sc2ccccc21 (stereo partly drawn) | 25.1 nM | 
CC(CNC(=O)c1ccc2c(c1)N=C(c1ccc(F)cc1)c1ccccc1S2)c1ccccc1 (stereo not drawn) [drawing 1362] | 3.98 nM | 
O=C(NCCc1ccc(Cl)cc1)c1ccc2c(c1)N=C(c1ccccc1)c1ccccc1S2 [drawing 1440] | 7.94 nM | 
CC(CNC(=O)c1ccc2c(c1)N=C(c1ccccc1)c1ccccc1S2)c1ccccc1 (stereo not drawn) [drawing 1197] | 12.6 nM | 
O=C(NCc1ccccc1Br)c1ccc2c(c1)N=C(c1ccccc1F)c1ccccc1S2 [drawing 1355] | 31.6 nM | 
CCCNC(=O)c1ccc2c(c1)N=C(c1ccc(Cl)cc1F)c1ccccc1S2 [drawing 1276] | 20 nM | 98%
Cc1cccc(C2=Nc3cc(C(=O)NCC(C)C)ccc3Sc3ccccc32)n1 [drawing 1472] | 7.94 nM | 96%
COc1cccc(C2=Nc3cc(C(=O)NCCC(F)(F)F)ccc3Sc3ccccc32)n1 [drawing 1237] | 15.8 nM | 91%
CC(C)CNC(=O)c1ccc2c(c1)N=C(c1ccc(Cl)cc1)c1ccc(Cl)cc1S2 [drawing 1525] | 10 nM | 86%
CC(C)CCNC(=O)c1ccc2c(c1)N=C(c1ccccc1F)c1ccccc1S2 [drawing 1509] | 10 nM | 85%
Cc1cccc(C2=Nc3cc(C(=O)NCCC(F)(F)F)ccc3Sc3ccccc32)n1 [drawing 1308] | 20 nM | 91%
O=C(c1ccc2c(c1)N=C(c1ccc(F)cc1)c1ccccc1S2)N1CCCCC1 [drawing 1544] | 100 nM | 
CC(C)CNC(=O)c1ccc2c(c1)N=C(c1ccsc1)c1ccccc1S2 [drawing 1303] | 2.51 nM | 90%
COc1ccc(C2=Nc3cc(C(=O)NNC(=O)c4ccccc4)ccc3Sc3ccccc32)cc1 [drawing 1535] | 79.4 nM | 68%
CC(C)CNC(=O)c1ccc2c(c1)N=C(c1ccc(Cl)cn1)c1ccc(F)cc1S2 [drawing 1229] | 15.8 nM | 87%

SMILES | Ki | Binding rat Inh %
CCCC1=Nc2cc(C(=O)NCCN(CC)c3ccccc3)ccc2Sc2ccccc21 [drawing 1292] | 20 nM | 
O=C(NNCc1ccccc1)c1ccc2c(c1)N=C(c1cccc(Br)c1)c1ccccc1S2 [drawing 1505] | 79.4 nM | 66%
CC(CNC(=O)c1ccc2c(c1)N=C(c1ccccc1F)c1ccccc1S2)c1ccccc1 (stereo not drawn) [drawing 1214] | 15.8 nM | 
CC(C)CCNC(=O)c1ccc2c(c1)N=C(c1ccc(F)cc1)c1ccccc1S2 [drawing 1330] | 3.98 nM | 91%
O=C(NCCCc1ccccc1)c1ccc2c(c1)N=C(c1ccc(Cl)cc1)c1ccccc1S2 [drawing 1434] | 6.31 nM | 
O=C(NCCc1ccccc1)c1ccc2c(c1)N=C(c1ccccc1F)c1ccccc1S2 [drawing 1444] | 50.1 nM | 
O=C(NCCc1ccccn1)c1ccc2c(c1)N=C(c1ccc(Cl)c(Cl)c1)c1ccccc1S2 [drawing 1452] | 50.1 nM | 114%
CCN(CCNC(=O)c1ccc2c(c1)N=C(c1cccc(Cl)c1)c1ccccc1S2)c1ccccc1 [drawing 1298] | 2.51 nM | 
CCCCNC(=O)c1ccc2c(c1)N=C(c1ccc(Cl)cn1)c1ccccc1S2 [drawing 1501] | 10 nM | 98%
CCCCNS(=O)(=O)c1ccc2c(c1)N=C(c1ccc(Cl)cc1)c1ccccc1S2 [drawing 1405] | 39.8 nM | 92%
O=C(NCCc1cccc(Cl)c1)c1ccc2c(c1)N=C(c1ccccc1)c1ccccc1S2 [drawing 1457] | 7.94 nM | 
O=C(NC1CCC(F)(F)CC1)c1ccc2c(c1)N=C(c1ccc(Cl)s1)c1ccccc1S2 [drawing 1224] | 0.631 nM | 107%
O=C(NCc1ccc(Cl)cc1Cl)c1ccc2c(c1)N=C(c1ccccc1)c1ccccc1S2 [drawing 1204] | 12.6 nM | 
O=C(NCCc1ccc(Cl)cc1)c1ccc2c(c1)N=C(c1ccccc1F)c1ccccc1S2 [drawing 1228] | 15.8 nM | 
O=C(NCCc1cccnc1)c1ccc2c(c1)N=C(c1ccc(Cl)s1)c1ccccc1S2 [drawing 1466] | 7.94 nM | 98%
Cc1ccsc1C1=Nc2cc(C(=O)NCCc3cccnc3)ccc2Sc2ccccc21 [drawing 1521] | 79.4 nM | 93%
CC(C)CCNC(=O)c1ccc2c(c1)N=C(c1ccccn1)c1ccccc1S2 [drawing 1349] | 31.6 nM | 86%
CCCCNC(=O)c1ccc2c(c1)N=C(c1ccccn1)c1ccccc1S2 [drawing 1527] | 79.4 nM | 108%
O=C(NC1CCCC1)c1ccc2c(c1)N=C(c1ccc(F)cc1)c1ccccc1S2 [drawing 1268] | 20 nM | 84%

Other lines, results leading:

Ki | Binding rat Inh % | SMILES
31.6 nM | 102% | Cc1ccsc1C1=Nc2cc(C(=O)NC3CCCC3)ccc2Sc2ccccc21 [drawing 1382]
100 nM | 79% | COc1ccc(C2=Nc3cc(C(=O)NC(C)C)ccc3Sc3ccccc32)cc1 [drawing 1550]
20 nM |  | CC(NC(=O)c1ccc2c(c1)N=C(N1CCCCC1)c1ccccc1S2)c1ccccc1 (stereo not drawn)
50.1 nM | 89% | O=C(NC1CCCC1)c1ccc2c(c1)N=C(c1ccc(Cl)cc1)c1ccccc1S2 [drawing 1436]
2.51 nM | 102% | CCCCNC(=O)c1ccc2c(c1)N=C(c1ccc(F)c(F)c1)c1ccccc1S2
3.16 nM | 84% | O=C(NC1CCCCC1)c1ccc2c(c1)N=C(c1cccc(F)c1)c1ccccc1S2 [drawing 1306]
25.1 nM | 96% | O=C(NCCc1ccncc1)c1ccc2c(c1)N=C(c1ccc(Cl)cc1)c1ccccc1S2 [drawing 1339]
63.1 nM | 94% | O=C(NN1CCCCC1)c1ccc2c(c1)N=C(c1ccc(F)cn1)c1ccccc1S2 [drawing 1494]
3.16 nM | 96% | Cc1ccc(CNC(=O)c2ccc3c(c2)N=C(c2ccc(Cl)c(Cl)c2)c2ccccc2S3)o1 [drawing 1320]
50.1 nM |  | O=C(NN1CCCCC1)c1ccc2c(c1)N=C(c1ccccc1)c1ccccc1S2 [drawing 1462]
1.26 nM |  | O=C(NCc1cccc(Cl)c1)c1ccc2c(c1)N=C(c1ccc(Cl)cc1)c1ccccc1S2 [drawing 1257]
1 nM | 83% | O=C(NCCCC(F)(F)F)c1ccc2c(c1)N=C(c1cccc(F)c1)c1ccccc1S2 [drawing 1248]
39.8 nM | 81% | CCOCCNC(=O)c1ccc2c(c1)N=C(c1ccc(Br)cc1)c1ccccc1S2 [drawing 1404]
10 nM | 82% | CCCCNC(=O)c1ccc2c(c1)N=C(c1ccc(OC)cc1)c1ccccc1S2 [drawing 1532]
3.98 nM |  | O=C(NCCc1ccccc1)c1ccc2c(c1)N=C(c1ccc(F)cc1)c1ccccc1S2 [drawing 1335]
79.4 nM | 73% | CCONC(=O)c1ccc2c(c1)N=C(c1ccc(Cl)c(Cl)c1)c1ccccc1S2 [drawing 1512]

Ki | Binding rat Inh % | SMILES
12.6 nM | 84% | O=C(NC1CCCC1)c1ccc2c(c1)N=C(c1cccc(Cl)c1)c1ccccc1S2 [drawing 1547]
10 nM | 96% | O=C(NC1CCCCC1)c1ccc2c(c1)N=C(c1ccc(Cl)cc1)c1ccccc1S2 [drawing 1518]
1.58 nM |  | O=C(NCc1cccc(Cl)c1)c1ccc2c(c1)N=C(c1ccc(F)cc1)c1ccccc1S2 [drawing 1266]
50.1 nM | 61% | O=C(NCCc1ccccn1)c1ccc2c(c1)N=C(c1ccc(Br)cc1)c1ccccc1S2 [drawing 1460]
3.98 nM |  | O=C(NCCc1ccc(Cl)cc1)c1ccc2c(c1)N=C(c1ccc(F)cc1)c1ccccc1S2 [drawing 1367]
2 nM |  | CC(CNC(=O)c1ccc2c(c1)N=C(c1ccc(Cl)cc1)c1ccccc1S2)c1ccccc1 (stereo not drawn) [drawing 1288]
12.6 nM | 97% | O=C(NCc1cccnc1)c1ccc2c(c1)N=C(c1ccc(F)cc1)c1ccccc1S2 [drawing 1541]
10 nM |  | O=C(NCCCc1ccccc1)c1ccc2c(c1)N=C(N1CCCCC1)c1ccccc1S2 [drawing 1533]
12.6 nM | 72% | O=C(NCc1cccnc1)c1ccc2c(c1)N=C(c1ccc(Br)cc1)c1ccccc1S2 [drawing 1180]
100 nM |  | Cc1ccc(N2CCN(C(=O)c3ccc4c(c3)N=C(c3ccc(Cl)cc3)c3ccccc3S4)CC2)c(C)c1 [drawing 1546]
63.1 nM |  | O=C(NCCc1ccc(Cl)cc1)c1ccc2c(c1)N=C(N1CCC(F)(F)CC1)c1ccccc1S2 [drawing 1492]
6.31 nM | 112% | O=C(NN1CCCCCC1)c1ccc2c(c1)N=C(c1ccc(F)cc1)c1ccccc1S2 [drawing 1433]
3.98 nM |  | O=C(NCCc1ccc(Cl)cc1)c1ccc2c(c1)N=C(N1CCCCC1)c1ccccc1S2 [drawing 1345]
20 nM | 77% | O=C(NCc1ccncc1)c1ccc2c(c1)N=C(c1ccc(Cl)cc1)c1ccccc1S2 [drawing 1294]
63.1 nM | 66% | NS(=O)(=O)c1ccc(CNC(=O)c2ccc3c(c2)N=C(c2ccc(Cl)cc2)c2ccccc2S3)cc1 [drawing 1486]
12.6 nM | 65% | O=C(Cc1ccccc1)NNC(=O)c1ccc2c(c1)N=C(c1ccc(F)cc1)c1ccccc1S2 [drawing 1190]
